Reference: ChEMBL document CHEMBL4619753, “Treating Cancer by Spindle Assembly Checkpoint Abrogation: Discovery of Two Clinical Candidates, BAY 1161909 and BAY 1217389, Targeting MPS1 Kinase” (J Med Chem, 2020)

Key:
HeLa = experiment: cells; conditions: Homo sapiens, 96 h
Description: Antiproliferative activity against human HeLa cells after 96 hrs by crystal violet staining based assay

[1] = Dose normalized AUC in Wistar rat at 0.2 to 1 mg/kg, po measured up to 24 hrs by HPLC-MS-MS analysis; format: ADME, organism-based; conditions: in vivo
[2] = Oral bioavailability in Wistar rat at 0.2 to 1 mg/kg measured up to 24 hrs by HPLC-MS-MS analysis; format: ADME, organism-based; conditions: in vivo
[3] = Blood clearance in Wistar rat at 0.1 to 0.5 mg/kg, iv administered as bolus dose measured up to 24 hrs by HPLC-MS-MS analysis; format: ADME, organism-based
[4] = Volume of distribution at steady state in Wistar rat at 0.1 to 0.5 mg/kg, iv administered as bolus dose measured up to 24 hrs by HPLC-MS-MS analysis; format: ADME, organism-based; conditions: in vivo; for Vd: Wistar, read-out: Vdss
[5] = Half life in Wistar rat at 0.1 to 0.5 mg/kg, iv administered as bolus dose measured up to 24 hrs by HPLC-MS-MS analysis; format: ADME, organism-based; conditions: in vivo; for half-life: Wistar
[6] = Blood clearance in Beagle dog at 0.1 to 0.5 mg/kg administered as iv infusion measured up to 24 hrs by HPLC-MS-MS analysis; format: ADME, organism-based, Canis lupus familiaris
[7] = Volume of distribution at steady state in Beagle dog at 0.1 to 0.5 mg/kg administered as iv infusion measured up to 24 hrs by HPLC-MS-MS analysis; format: ADME, organism-based, Canis lupus familiaris; conditions: in vivo, read-out: Vdss
[8] = Half life in Beagle dog at 0.1 to 0.5 mg/kg, administered as iv infusion measured up to 24 hrs by HPLC-MS-MS analysis; format: ADME, organism-based, Canis lupus familiaris; conditions: in vivo
[9] = Dose normalized AUC in Beagle dog at 0.2 to 1 mg/kg, po measured up to 24 hrs by HPLC-MS-MS analysis; format: ADME, organism-based, Canis lupus familiaris; conditions: in vivo
[10] = Oral bioavailability in Beagle dog at 0.2 to 1 mg/kg measured up to 24 hrs by HPLC-MS-MS analysis; format: ADME, organism-based, Canis lupus familiaris; conditions: in vivo
[11] = Lipophilicity, LogD of compound at pH 7.5 by reverse phase HPLC analysis; format: physicochemical; conditions: buffer
[12] = Aqueous solubility of the compound; format: physicochemical; conditions: buffer
HT-29 = experiment: cells; conditions: Homo sapiens, HT-29, 96 h
Description: Antiproliferative activity against human HT-29 cells after 96 hrs by crystal violet staining based assay

| SMILES | IC50 (HeLa) | AUC/dose [1] | bioavailability [2] | other results |
| --- | --- | --- | --- | --- |
| CC(C)CNc1cccc2c1ncn2-c1ccc(C(=O)NC2CC2)cc1 | > 10 µM | – | – | – |
| CNC(=O)Nc1ccc(-c2cnc3c(NCC(C)C)nccn23)cc1 | – | 4.9 kg·h/L | 94% | – |
| COc1ccccc1Nc1nc2ccc(-c3cc(C)c(O)c(C)c3)cn2n1 | 5.9 µM | – | – | – |
| CC(C)CNc1nccn2c(-c3ccc(C(=O)NC4CC4)cc3)cnc12 | – | – | – | AUC/dose ([1]; BLD = below limit of detection): Bld |
| CCC(C(=O)Nc1ccc(-c2ccc3nc(Nc4ccc(S(C)(=O)=O)cc4OC)nn3c2)cc1)c1ccc(F)cc1 (racemic) | 7.5 µM | – | – | – |
| COc1ccc(Oc2cc(NCCC(F)(F)F)c3ncc(-c4ccc(C(=O)NC5CC5)c(C)c4)n3n2)c(F)c1F [BAY-1217389] | – | 2.4 kg·h/L | 72% | Vd [4]: 2.2 L/kg; half-life [5]: 7.8 h; Vd [7]: 3.9 L/kg; half-life [8]: 13 h; AUC/dose [9]: 2.5 kg·h/L; bioavailability [10]: 71% |
| CC(C)CNc1cc(-c2ccccc2)nn2c(-c3ccc(C(=O)NC4CC4)cc3)cnc12 | 1.55 µM | – | – | – |
| Cc1cc(-c2cnn3c(NC[C@H]4C[C@@](C)(O)C4)cc(Oc4cccnc4)nc23)ccc1C(=O)NC1CC1 [LUVIXASERTIB] | – | – | – | IC50 (HT-29): 0.557 µM |
| Cc1cc(-c2cnc3c(NCCC(F)(F)F)cc(C4(c5cc(F)ccc5O)CC4)nn23)ccc1C(=O)NC1CC1 | – | 0.76 kg·h/L | 45% | clearance [3]: 14.2 mL/min/kg; Vd [4]: 3.1 L/kg; half-life [5]: 4.7 h; clearance [6]: 21.7 mL/min/kg; Vd [7]: 2.1 L/kg; half-life [8]: 2.1 h; AUC/dose [9]: 1.1 kg·h/L; bioavailability [10]: 81% |
| O=C(Cc1ccc(F)cc1)Nc1ccc(-c2ccc3nc(Nc4ccc(C(=O)N5CCOCC5)cc4)nn3c2)cc1 | 0.725 µM | – | – | – |
| CC(C)CNc1nc(-c2ccccc2)nn2c(-c3ccc(C(=O)NC4CC4)cc3)cnc12 | > 10 µM | – | – | – |
| CC(C)CNc1cc(-c2ccccc2)cc2c1ncn2-c1ccc(C(=O)NC2CC2)cc1 | 2.48 µM | – | – | – |
| COc1cc(S(C)(=O)=O)ccc1Nc1nc2ccc(-c3ccc(NC(=O)[C@@H](C)c4ccc(F)cc4)cc3)cn2n1 | 7 µM | – | – | – |
| N#Cc1ccccc1Nc1nc2ccc(-c3ccc(NC(=O)Cc4ccccc4)cc3)cn2n1 | 0.695 µM | 0.084 kg·h/L | 12% | – |
| C=C(c1ccc(OC)c(F)c1)c1cc(NCCC(F)(F)F)c2ncc(-c3ccc(C(=O)NC4CC4)c(C)c3)n2n1 | – | 0.47 kg·h/L | 33% | clearance [3]: 14.5 mL/min/kg; Vd [4]: 2.1 L/kg; half-life [5]: 3.1 h; clearance [6]: 56.7 mL/min/kg; Vd [7]: 2.6 L/kg; half-life [8]: 0.84 h; AUC/dose [9]: 0.005 kg·h/L; bioavailability [10]: 1.4% |
| Cc1cc(-c2cnc3c(NCC(C)C)nccn23)ccc1C(=O)NC1CC1 | – | 0.22 kg·h/L | 20% | – |
| COc1cc(S(C)(=O)=O)ccc1Nc1nc2ccc(-c3ccc(NC(=O)C4(c5ccc(F)cc5)CC4)cc3)cn2n1 | > 10 µM | – | – | – |
| CC(C)CNc1nc(-c2ccccc2)cc2c(-c3ccc(C(=O)NC4CC4)cc3)cnn12 | 7.73 µM | – | – | – |
| COc1ccccc1Nc1nc2ccc(-c3ccc(NC(=O)Cc4ccccc4)cc3)cn2n1 | 2.3 µM | 0.066 kg·h/L | 9% | – |

Further lines, with some results ahead:

| IC50 (HeLa) | AUC/dose [1] | bioavailability [2] | SMILES | other results |
| --- | --- | --- | --- | --- |
| 0.246 µM | 0.98 kg·h/L | 49% | COc1cc(S(C)(=O)=O)ccc1Nc1nc2ccc(-c3ccc(NC(=O)Cc4ccc(F)cc4)cc3)cn2n1 | – |
| 0.26 µM | 3.3 kg·h/L | 49% | COc1cc(S(C)(=O)=O)ccc1Nc1nc2ccc(-c3ccc(NC(=O)[C@H](C)c4ccc(F)cc4)cc3)cn2n1 [BAY-1161909] | clearance [3]: 3.17 mL/min/kg; Vd [4]: 2.4 L/kg; half-life [5]: 14 h; clearance [6]: 23.3 mL/min/kg; Vd [7]: 6.7 L/kg; half-life [8]: 6.3 h; AUC/dose [9]: 0.52 kg·h/L; bioavailability [10]: 63% |
| 0.14 µM | 0.81 kg·h/L | 20% | COc1cc(C(=O)N2CCOCC2)ccc1Nc1nc2ccc(-c3ccc(NC(=O)Cc4ccc(F)cc4)cc3)cn2n1 | – |
| 0.12 µM | 1.9 kg·h/L | 52% | COc1cc(N2CCOC2=O)ccc1Nc1nc2ccc(-c3ccc(NC(=O)Cc4ccc(F)cc4)cc3)cn2n1 | – |
| 0.057 µM | 1.8 kg·h/L | 55% | COc1cc(C(=O)N2CC(F)C2)ccc1Nc1nc2ccc(-c3ccc(NC(=O)[C@H](C)c4ccc(F)cc4)cc3)cn2n1 | clearance [3]: 5.17 mL/min/kg; Vd [4]: 2.1 L/kg; half-life [5]: 5.3 h; clearance [6]: 9.83 mL/min/kg; Vd [7]: 5.2 L/kg; half-life [8]: 7 h; AUC/dose [9]: 0.64 kg·h/L; bioavailability [10]: 39% |
| 0.026 µM | – | – | O=C(Cc1ccc(F)cc1)Nc1ccc(-c2ccc3nc(Nc4ccc(C(=O)N5CCOCC5)cc4OCC(F)(F)F)nn3c2)cc1 | chromatographic logD [11]: 3.9; solubility [12]: Insoluble |
| 0.27 µM | 4.2 kg·h/L | 49% | COc1cc(N2CCOC2=O)ccc1Nc1nc2ccc(-c3ccc(NC(=O)[C@H](C)c4ccc(F)cc4)cc3)cn2n1 | Vdss ([4]; 24 h): 1.4 L/kg; t1/2 ([5]; 24 h): 8 h |
| 0.085 µM | 0.049 kg·h/L | – | COc1cc(C(=O)N2CC3(COC3)C2)ccc1Nc1nc2ccc(-c3ccc(NC(=O)Cc4ccc(F)cc4)cc3)cn2n1 | – |
| 0.037 µM | – | – | COc1cc(C(=O)N2CC(F)C2)ccc1Nc1nc2ccc(-c3ccc(NC(=O)Cc4ccc(F)cc4)cc3)cn2n1 | – |
| 0.266 µM | 0.066 kg·h/L | 6.6% | N#Cc1ccccc1Nc1nc2ccc(-c3ccc(NC(=O)Cc4ccc(F)cc4)cc3)cn2n1 | – |
| 0.2 µM | – | – | COc1cc(C(=O)N(C)C)ccc1Nc1nc2ccc(-c3ccc(NC(=O)Cc4ccc(F)cc4)cc3)cn2n1 | – |
| 0.05 µM | 0.23 kg·h/L | 17% | COc1cc(C(=O)N2C[C@@H]3C[C@H]2CO3)ccc1Nc1nc2ccc(-c3ccc(NC(=O)Cc4ccc(F)cc4)cc3)cn2n1 | – |
